Source: patent publication US20250179059A1 (The Regents of the University of California, priority 2021, published 2025)

Each compound was assayed on human SKM-1 acute myeloid leukemia cells (assay: SKM-1 antiproliferation cell-based assay (ATPlite)). Conditions: Homo sapiens, SKM-1, SKM-1 antiproliferation assay.
Method: The cell-based assay indirectly measures cell density (and therefore proliferation and/or survival) by detecting total ATP concentration in a homogeneous format. Briefly, human SKM-1 acute myeloid leukemia cells (Leibniz Institute DSMZ #ACC 547) proliferating in log phase are collected by centrifugation, re-suspended in culture media (RPMI 1640/15% FBS/100 U/mL penicillin/100 μg/mL streptomycin) and diluted to 34722 cells/mL in media after counting. Then 180 μL cells are plated per well into a 96-well tissue-culture treated, clear bottom plate (Coming #3603). A 96-well compound plate (Corning #3357) is then generated by serial dilution of compounds into DMSO over nine concentrations and adding separate negative (DMSO) and positive control (reference compound) wells. Each compound concentration is tested in triplicate. First, 1 μL from each well of the compound plate is added to 99 μL culture media in an intermediate plate and mixed by pipetting. Then 20 μL of the diluted compounds in media are added to the assay plate containing the cells. The assay plate is maintained for 4 days in a standard cell culture incubator. At the end of the incubation period, 100 μL ATPlite Istep (PerkinElmer) is added to the assay plate wells, and the resulting luminescence is detected using an Infinite M1000 or a Spark multimode plate reader (Tecan). Data analysis is performed in Prism (GraphPad Software). For curve fitting, a non-linear regression, variable slope equation is used to calculate cellular IC50s.
In the case of `Cc1cc(-c2ccc(N3CCCC3=O)c(Cl)c2)c(O)c(-c2cccc(N3CCN(C(C)(C)C)CC3)c2)n1` [Example 1041, 1-(4-(2-(3-(4-(tert-butyl)piperazin-1-yl)phenyl)-3-hydroxy-6-methylpyridin-4-yl)-2-chlorophenyl)pyrrolidin-2-one], the GI50 is reported as 30 to 300 nM.
`Cn1ccn(-c2ccc(-c3cc(C=O)cc(-c4cccc(N5CCN(C(C)(C)C)CC5)c4)c3O)cc2Cl)c1=O` [Example 1042, 3″-(4-(tert-Butyl)piperazin-1-yl)-3-chloro-2′-hydroxy-4-(3-methyl-2-oxo-2,3-dihydro-1H-imidazol-1-yl)-[1,1′:3′,1″-terphenyl]-5′-carbaldehyde] showed a GI50 of 300 to 3000 nM.
For `Cc1ncc(-c2nc(F)cc(-c3ccc(-n4ccn(C)c4=O)c(Cl)c3)c2O)cc1N1CCN(C(C)(C)C)CC1` [Example 1043, 1-(4-(5′-(4-(tert-Butyl)piperazin-1-yl)-6-fluoro-3-hydroxy-6′-methyl-[2,3′-bipyridin]-4-yl)-2-chlorophenyl)-3-methyl-1H-imidazol-2(3H)-one], the GI50 was 30 to 300 nM.
`COc1ncc(-c2nc(F)cc(-c3ccc(-n4ccn(C)c4=O)c(Cl)c3)c2O)cc1N1CCN(C(C)(C)C)CC1` [Example 1044, 1-(4-(5′-(4-(tert-Butyl)piperazin-1-yl)-6-fluoro-3-hydroxy-6′-methoxy-[2,3′-bipyridin]-4-yl)-2-chlorophenyl)-3-methyl-1H-imidazol-2(3H)-one] showed a GI50 of 0.3 to 30 nM.
`CC(C)(C)N1CCN(c2cccc(-c3cc(F)cc(-c4ccc(N5CCCC5=O)c(Cl)c4)c3O)c2)CC1` [Example 1045, 1-(3″-(4-(tert-Butyl)piperazin-1-yl)-3-chloro-5′-fluoro-2′-hydroxy-[1,1′:3′,1″-terphenyl]-4-yl)pyrrolidin-2-one] showed a GI50 of 30 to 300 nM.
`Cc1cc(-c2ccc(N3CCN(C)C3=O)c(Cl)c2)c(O)c(-c2cccc(N3CCN(C(C)(C)C)CC3)c2)n1` [Example 1046, 1-(4-(2-(3-(4-(tert-Butyl)piperazin-1-yl)phenyl)-3-hydroxy-6-methylpyridin-4-yl)-2-chlorophenyl)-3-methylimidazolidin-2-one] gave a GI50 of 0.3 to 30 nM.
For `[2H]C([2H])([2H])n1ccn(-c2ccc(-c3cc(F)nc(-c4cccc(N5CCN(C(C)(C)C)CC5)c4)c3O)cc2Cl)c1=O` [Example 1047, 1-(4-(2-(3-(4-(tert-butyl)piperazin-1-yl)phenyl)-6-fluoro-3-hydroxypyridin-4-yl)-2-chlorophenyl)-3-(methyl-d3)-1,3-dihydro-2H-imidazol-2-one], the GI50 was 0.3 to 30 nM.
Work on `Cc1cc(-c2ccc(-n3ccn(C)c3=O)c(Cl)c2)c(O)c(-c2ccc(=O)n(C3CCN(C(C)C)CC3)c2)n1` [Example 1048, 4-(3-Chloro-4-(3-methyl-2-oxo-2,3-dihydro-1H-imidazol-1-yl)phenyl)-3-hydroxy-1′-(1-isopropylpiperidin-4-yl)-6-methyl-[2,3′-bipyridin]-6′(1′H)-one] yielded a GI50 of 30 to 300 nM.
For `Cn1ccn(-c2ccc(-c3cc(F)nc(-c4cnc(O)c(N5CCN(C(C)(C)C)CC5)c4)c3O)cc2Cl)c1=O` [Example 1049, 1-(4-(5′-(4-(tert-butyl)piperazin-1-yl)-6-fluoro-3,6′-dihydroxy-[2,3′-bipyridin]-4-yl)-2-chlorophenyl)-3-methyl-1,3-dihydro-2H-imidazol-2-one], the GI50 was 30 to 300 nM.
`Cc1cc(-c2cc(F)nc(-c3cccc(N4CCN(C(C)(C)C)CC4)c3)c2O)ccc1-n1ccn(C)c1=O` [Example 1050, 1-(4-(2-(3-(4-(tert-butyl)piperazin-1-yl)phenyl)-6-fluoro-3-hydroxypyridin-4-yl)-2-methylphenyl)-3-methyl-1,3-dihydro-2H-imidazol-2-one] was tested, and the GI50 was 0.3 to 30 nM.
`CC1=CCN(c2ccc(-c3cc(F)cc(-c4cccc(N5CCN(C(C)(C)C)CC5)c4)c3O)cc2Cl)C1=O` [Example 1051, 1-(3″-(4-(tert-Butyl)piperazin-1-yl)-3-chloro-5′-fluoro-2′-hydroxy-[1,1′:3′,1″-terphenyl]-4-yl)-3-methyl-1,5-dihydro-2H-pyrrol-2-one] showed a GI50 of 0.3 to 30 nM.
`CC(C)(C)N1CCN(c2cccc(-c3cc(F)cc(-c4ccc(-n5ccsc5=O)c(Cl)c4)c3O)c2)CC1` [Example 1052, 3-(3″-(4-(tert-butyl)piperazin-1-yl)-3-chloro-5′-fluoro-2′-hydroxy-[1,1′:3′,1″-terphenyl]-4-yl)thiazol-2(3H)-one] gave a GI50 of 0.3 to 30 nM.
`Cc1cc(-c2ccc(-n3ccsc3=O)c(Cl)c2)c(O)c(-c2cccc(N3CCN(C(C)(C)C)CC3)c2)n1` [Example 1053, 3-(4-(2-(3-(4-(tert-butyl)piperazin-1-yl)phenyl)-3-hydroxy-6-methylpyridin-4-yl)-2-chlorophenyl)thiazol-2(3H)-one] gave a GI50 of 0.3 to 30 nM.
`Cn1ccn(-c2ccc(-c3cc(F)nc(-c4cccc(N5CCN(C(C)(C)C)CC5)c4)c3O)cc2F)c1=O` [Example 1054, 1-(4-{2-[3-(4-tert-Butyl-piperazin-1-yl)-phenyl]-6-fluoro-3-hydroxy-pyridin-4-yl}-2-fluoro-phenyl)-3-methyl-1,3-dihydro-imidazol-2-one] showed a GI50 of 0.3 to 30 nM.
With `CC1=CCN(c2ccc(-c3cc(C)nc(-c4cccc(N5CCN(C(C)(C)C)CC5)c4)c3O)cc2Cl)C1=O` [Example 1055, 1-(4-(2-(3-(4-(tert-butyl)piperazin-1-yl)phenyl)-3-hydroxy-6-methylpyridin-4-yl)-2-chlorophenyl)-3-methyl-1,5-dihydro-2H-pyrrol-2-one] the GI50 was 0.3 to 30 nM.
In the case of `Cn1ccn(-c2ccc(-c3cc(F)nc(-c4cccc(N5CCN(C(C)(C)C)CC5)c4)c3N)cc2Cl)c1=O` [Example 1056, 1-(4-(3-amino-2-(3-(4-(tert-butyl)piperazin-1-yl)phenyl)-6-fluoropyridin-4-yl)-2-chlorophenyl)-3-methyl-1,3-dihydro-2H-imidazol-2-one], the GI50 is reported as 0.3 to 30 nM.

Same assay, conditions: SKM-1 antiproliferation assay
Work on `Cc1ncc(-c2cc(F)cc(-c3ccc(-n4ccn(C)c4=O)c(Cl)c3)c2O)cc1N1CC2(CC2)[C@](C)(O)C1` [Example 874] yielded a GI50 of 0.3 to 30 nM.

What follows are compounds tested against T1, human BRD4 bromodomain II (Homo sapiens, UniProt O60885) (assay: Bromodomain binding assay (AlphaScreen), BRD4 BDII). Conditions: AlphaScreen assay, Table C2; read-out: BRD4 BDII IC50.
T1 construct: human BRD4 bromodomain II [based on Genbank NM_058243, residues 349-460]; host or cells: E. coli
Summary of the method: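 Inhibition of acetyl-H4 peptide binding to human BRD4 bromodomains is measured by bead-based proximity (AlphaScreen) in pH 7.5 HEPES buffer containing 0.05% CHAPS and 0.1% BSA. Ten compound concentrations in 3-fold steps give competitive binding IC50s.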
`CC(=O)Nc1ccc(-c2cccc(-c3cccc(-c4nn[nH]n4)c3)c2O)cc1F` [Example 227, N-(3-fluoro-2′-hydroxy-3″-(2H-tetrazol-5-yl)-[1,1′:3′,1″-terphenyl]-4-yl)acetamide] showed an IC50 of over 100 nM.
`O=C1NCCN1c1ccc(-c2cccc(-c3ccnc(N4CCNCC4)c3)c2O)cc1Cl` [Example 228, 1-(3-chloro-2′-hydroxy-3′-(2-(piperazin-1-yl)pyridin-4-yl)-[1,1′-biphenyl]-4-yl)imidazolidin-2-one] gave an IC50 of 1 to 10 nM.
`CC(=O)Nc1ccc(-c2cccc(-c3cccc(-c4c[nH]cn4)c3)c2O)cc1F` [Example 229, N-(3-fluoro-2′-hydroxy-3″-(1H-imidazol-4-yl)-[1,1′:3′,1″-terphenyl]-4-yl)acetamide] gave an IC50 of 10 to 100 nM.
`CC(=O)Nc1ccc(-c2cccc(-c3ccnc(N4CC(N)C4)c3)c2O)cc1F` [Example 232, N-(3′-(2-(3-aminoazetidin-1-yl)pyridin-4-yl)-3-fluoro-2′-hydroxy-[1,1′-biphenyl]-4-yl)acetamide] showed an IC50 of 10 to 100 nM.
Work on `CC(=O)Nc1ccc(-c2cccc(-c3cc(N4CCNCC4)ccn3)c2O)cc1F` [Example 233, N-(3-fluoro-2′-hydroxy-3′-(4-(piperazin-1-yl)pyridin-2-yl)-[1,1′-biphenyl]-4-yl)acetamide] yielded an IC50 of over 100 nM.
Compound `CC(=O)Nc1ccc(-c2cccc(-c3ccc(Cl)c(N4CCNCC4)c3)c2O)cc1F` [Example 241, N-(4″-chloro-3-fluoro-2′-hydroxy-3″-(piperazin-1-yl)-[1,1′:3′,1″-terphenyl]-4-yl)acetamide] has an IC50 of 1 to 10 nM.
With `CC(=O)Nc1ccc(-c2cc(F)cc(-c3ccc(Cl)c(N4CCNCC4)c3)c2O)cc1F` [Example 242, N-(4″-chloro-3,5′-difluoro-2′-hydroxy-3″-(piperazin-1-yl)-[1,1″-terphenyl]-4-yl)acetamide] the IC50 was 1 to 10 nM.
Work on `CC(=O)Nc1ccc(-c2cccc(-c3cccc(-c4cn[nH]n4)c3)c2O)cc1F` [Example 243, N-(3-fluoro-2′-hydroxy-3″-(2H-1,2,3-triazol-4-yl)-[1,1′:3′,1″-terphenyl]-4-yl)acetamide] yielded an IC50 of over 100 nM.
For `CC(=O)Nc1ccc(-c2cccc(-c3cccc(-c4cn[nH]c4)c3)c2O)cc1F` [Example 246, N-(3-fluoro-2′-hydroxy-3″-(1H-pyrazol-4-yl)-[1,1′:3′,1″-terphenyl]-4-yl)acetamide], the IC50 was over 100 nM.
`CC(=O)Nc1ccc(-c2cc(F)cc(-c3ccc(F)c(C4=CCNCC4)c3)c2O)cc1F` [Example 247, N-(3,4″,5′-trifluoro-2′-hydroxy-3″-(1,2,3,6-tetrahydropyridin-4-yl)-[1,1′:3′,1″-terphenyl]-4-yl)acetamide] gave an IC50 of 1 to 10 nM.
`CC(=O)Nc1ccc(-c2cccc(-c3ccnc(N4CCNCC4)c3)c2C(F)F)cc1F` [Example 250, N-(2′-(difluoromethyl)-3-fluoro-3′-(2-(piperazin-1-yl)pyridin-4-yl)-[1,1′-biphenyl]-4-yl)acetamide] gave an IC50 of over 100 nM.
